Here are results for 19 compounds from PubChem BioAssay AID248 (DTP/NCI, 2004).

“And” between values parts separate entries of the source, which are not always exact repeats. Equal values may be shown once. Toxic doses and inconclusive results are not listed.

The test system of the test is L1210 leukemia ip in BDF1 mice, survival T/C. The experiment in a line: NCI In Vivo Anticancer Drug Screen. Data for tumor model L1210 Leukemia (intraperitoneal) in B6D2F1 (BDF1) mice. The following applies: endpoint: mean survival time, higher = longer survival. The method in brief:
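Tumor cells were implanted, animals were treated, and survival was followed. The result divides the treated measurement by the vehicle-control measurement.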

Where [1] appears, read: dose: 20.0 mg/kg/injection, schedule: Q01DX001 (ip), vehicle: other.
Setting [2] is: dose: 75.0 mg/kg/injection, schedule: Q01DX001 (ip), vehicle: other.
[3] abbreviates: dose: 100.0 mg/kg/injection, schedule: Q01DX009 (ip), vehicle: saline with Tween-80.
[4] abbreviates: dose: 200.0 mg/kg/injection, schedule: Q01DX009 (ip), vehicle: saline with Tween-80.
[5] abbreviates: dose: 150.0 mg/kg/injection, schedule: Q01DX001 (ip), vehicle: other.
The mark [6] stands for this setting: dose: 300.0 mg/kg/injection, schedule: Q01DX001 (ip), vehicle: other.

For `CCCCCC(CN(C)C)C(=O)/C=C/c1ccccc1` (configuration not stated), the T/C runs as follows: (dose: 50.0 mg/kg/injection, schedule: Q01DX009 (sc), vehicle: other) 95 % of control; (dose: 100.0 mg/kg/injection, schedule: Q01DX001 (sc), vehicle: steriod suspending solution) 93 % of control; (dose: 100.0 mg/kg/injection, schedule: Q01DX009 (sc), vehicle: other) 102 % of control; (dose: 100.0 mg/kg/injection, schedule: Q04DX003 (sc), vehicle: other) 101 % of control; (dose: 200.0 mg/kg/injection, schedule: Q01DX001 (sc), vehicle: steriod suspending solution) 93 % of control; (dose: 200.0 mg/kg/injection, schedule: Q04DX003 (sc), vehicle: other) 90 % of control. Moreover, the T/C (dose: 400.0 mg/kg/injection, schedule: Q01DX001 (sc), vehicle: steriod suspending solution) is 100 % of control.
With `Nc1cccc(CCc2nc(N)nc(N)c2-c2ccc(Cl)cc2)c1`, the T/C (dose: 100.0 mg/kg/injection, schedule: Q01DX001 (ip), vehicle: saline with Tween-80) is 97 % of control; the T/C (dose: 200.0 mg/kg/injection, schedule: Q01DX001 (ip), vehicle: saline with Tween-80) was 95 % of control; the T/C (dose: 400.0 mg/kg/injection, schedule: Q01DX001 (ip), vehicle: saline with Tween-80) was 101 % of control.
On to `O=NN(CCCl)C(=O)NC1C=CCCC1` (configuration not stated), for which the T/C was 117 % of control (dose: 9.0 mg/kg/injection, schedule: Q01DX001 (ip), vehicle: other); 158 % of control under setting [1]; 224 % of control (dose: 37.0 mg/kg/injection, schedule: Q01DX001 (ip), vehicle: other); 175 % of control (dose: 50.0 mg/kg/injection, schedule: Q01DX001 (ip), vehicle: other); 173 % of control under setting [2]; 166 % of control (dose: 112.0 mg/kg/injection, schedule: Q01DX001 (ip), vehicle: other).
Regarding `CC(C)C[C@H]1C(=O)N2CCC[C@H]2[C@]2(O)O[C@](NC(=O)[C@@H]3C=C4c5cccc6[nH]c(Br)c(c56)C[C@H]4N(C)C3)(C(C)C)C(=O)N12`, the T/C was 105 % of control under setting [3] and 106 % of control under setting [4].
`O=C(OCc1ccccc1CN1CCCCC1)c1ccc(Br)cc1`: the T/C runs as follows: (dose: 25.0 mg/kg/injection, schedule: Q04DX002 (ip), vehicle: Klucel (hydroxypropylcellulose) (HPC)) 115 % of control; (dose: 50.0 mg/kg/injection, schedule: Q04DX002 (ip), vehicle: Klucel (hydroxypropylcellulose) (HPC)) 109 % of control; (dose: 100.0 mg/kg/injection, schedule: Q04DX002 (ip), vehicle: Klucel (hydroxypropylcellulose) (HPC)) 105 % of control.
Consider `CC(C)C1=CC23CCC4C(C)(C(=O)Cl)CCCC4(C)C2CC1C1(Cl)C(=O)OC(=O)C31Cl` (configuration not stated), for which the T/C was 94 % of control under setting [2], 93 % of control under setting [5] and 89 % of control under setting [6].
As to `Nc1nnnn1N(Cc1ccccc1)Cc1ccccc1`, the T/C was 96 % of control (dose: 100.0 mg/kg/injection, schedule: Q04DX003 (ip), vehicle: Klucel (hydroxypropylcellulose) (HPC)) and 117 % of control (dose: 200.0 mg/kg/injection, schedule: Q04DX003 (ip), vehicle: Klucel (hydroxypropylcellulose) (HPC)).
As for `CCOC(=O)c1ccc2ccccc2c1`, the T/C reads like this: under setting [3], 94 % of control; under setting [4], 97 % of control; (dose: 400.0 mg/kg/injection, schedule: Q01DX009 (ip), vehicle: saline with Tween-80) 89 % of control.
Consider `COc1cc(C(=O)N(C)C)nc(OC)n1`, for which the T/C is, setting by setting: (dose: 100.0 mg/kg/injection, schedule: Q04DX003 (ip), vehicle: saline) 106 % of control; (dose: 200.0 mg/kg/injection, schedule: Q04DX003 (ip), vehicle: saline) 108 % of control; (dose: 400.0 mg/kg/injection, schedule: Q04DX003 (ip), vehicle: saline) 106 % of control.
As to `CCN=C(N)c1ccc(NC(=O)c2ccc(C(=O)Nc3ccc(C(N)=NCC)cc3)cc2)cc1`, the T/C (dose: 1.0 mg/kg/injection, schedule: Q01DX Z (ip), vehicle: other) was 115 % of control; the T/C (dose: 2.0 mg/kg/injection, schedule: Q01DX Z (ip), vehicle: other) was 91 % of control; the T/C (dose: 8.0 mg/kg/injection, schedule: Q01DX Z (ip), vehicle: carboxymethylcellulose (CMC)) is 100 % of control.
On to `CC(=O)NC(CSSCC(N)C(=O)O)C(=O)O` (configuration not stated) (tested in a mixture with another compound), for which the T/C (dose: 12.5 mg/kg/injection, schedule: Q04DX002 (ip), vehicle: DMSO) was 93 % of control; the T/C (dose: 25.0 mg/kg/injection, schedule: Q04DX002 (ip), vehicle: DMSO) is 103 % of control; the T/C (dose: 50.0 mg/kg/injection, schedule: Q04DX002 (ip), vehicle: DMSO) is 93 % of control.
Turning to `COc1cc(NC(=O)Nc2ccc(Cl)cc2[N+](=O)[O-])c(OC)cc1Cl`, the T/C reads like this: (dose: 100.0 mg/kg/injection, schedule: Q01DX009 (ip), vehicle: Klucel (hydroxypropylcellulose) (HPC)) 94 % of control; (dose: 200.0 mg/kg/injection, schedule: Q01DX009 (ip), vehicle: Klucel (hydroxypropylcellulose) (HPC)) 94 % of control; (dose: 400.0 mg/kg/injection, schedule: Q01DX009 (ip), vehicle: Klucel (hydroxypropylcellulose) (HPC)) 89 % of control.
With `COc1ccc(-c2c(C)c(C(=O)O)nc(-c3ccc4c(O)c(OC)c5c(c4n3)=NC(C)(C)N=5)c2N)c(O)c1OC`, the T/C is, setting by setting: (dose: 4.5 mg/kg/injection, schedule: Q01DX Z (ip), vehicle: water) 104 % of control; (dose: 6.7 mg/kg/injection, schedule: Q01DX Z (ip), vehicle: water) 97 % of control; (dose: 10.0 mg/kg/injection, schedule: Q01DX Z (ip), vehicle: water) 111 % of control; (dose: 15.0 mg/kg/injection, schedule: Q01DX Z (ip), vehicle: water) 103 % of control.
Take `CN(C)C1C2C(CS2(=O)=O)C1(C)C` (configuration not stated): the T/C (dose: 75.0 mg/kg/injection, schedule: Q01DX001 (ip), vehicle: carboxymethylcellulose (CMC)) is 100 % of control and the T/C (dose: 150.0 mg/kg/injection, schedule: Q01DX001 (ip), vehicle: carboxymethylcellulose (CMC)) is 100 % of control.
In the case of `OC1CC(c2ccccc2)C1(c1ccccc1)c1ccccc1` (configuration not stated), the T/C under setting [2] is 104 % of control, the T/C under setting [5] was 102 % of control and the T/C under setting [6] was 94 % of control.
In the case of `CCOc1cc([N+](=O)[O-])c(OCC)cc1C#N`, the T/C is, setting by setting: (dose: 5.0 mg/kg/injection, schedule: Q01DX001 (ip), vehicle: other) 106 % of control; (dose: 10.0 mg/kg/injection, schedule: Q01DX001 (ip), vehicle: other) 90 % of control; under setting [1], 93 % of control.
For `Cc1ncc2c(=O)n(-c3ccc(Br)cc3)[nH]c2n1`, the T/C is 96 % of control (dose: 100.0 mg/kg/injection, schedule: Q04DX003 (ip), vehicle: gum acacia); 97 % of control (dose: 200.0 mg/kg/injection, schedule: Q04DX003 (ip), vehicle: gum acacia); 92 % of control (dose: 400.0 mg/kg/injection, schedule: Q04DX003 (ip), vehicle: gum acacia).
In the case of `CC(=O)NCCSC(=O)C(=O)SCCNC(C)=O`, the T/C by setting is: (dose: 25.0 mg/kg/injection, schedule: Q01DX001 (ip), vehicle: saline) 115 % of control; (dose: 25.0 mg/kg/injection, schedule: Q01DX Z (ip), vehicle: saline) 102 % of control; (dose: 50.0 mg/kg/injection, schedule: Q01DX001 (ip), vehicle: saline) 102 % of control; (dose: 50.0 mg/kg/injection, schedule: Q01DX Z (ip), vehicle: saline) 96 % of control; (dose: 100.0 mg/kg/injection, schedule: Q01DX001 (ip), vehicle: saline) 102 % of control; (dose: 100.0 mg/kg/injection, schedule: Q01DX Z (ip), vehicle: saline) 96 % of control. In addition, the T/C is 94 % of control and 96 % of control and 104 % of control (dose: 200.0 mg/kg/injection, schedule: Q01DX001 (ip), vehicle: saline); 86 % of control (dose: 450.0 mg/kg/injection, schedule: Q01DX001 (ip), vehicle: saline).
With `Cc1ccc(B(O)O)cc1`, the T/C reads like this: (dose: 50.0 mg/kg/injection, schedule: Q04DX002 (ip), vehicle: alcohol) 107 % of control; (dose: 100.0 mg/kg/injection, schedule: Q04DX002 (ip), vehicle: alcohol) 101 % of control; (dose: 200.0 mg/kg/injection, schedule: Q04DX002 (ip), vehicle: alcohol) 101 % of control.
